Assay [1] has as its target T1, human sphingosine kinase type 2 (hSPHK2) (Homo sapiens, UniProt Q9NRA0).
T1 construct: purchased; host or cells: Sf9 insect cells (baculovirus)
T1 sequence (Q9NRA0 1-654): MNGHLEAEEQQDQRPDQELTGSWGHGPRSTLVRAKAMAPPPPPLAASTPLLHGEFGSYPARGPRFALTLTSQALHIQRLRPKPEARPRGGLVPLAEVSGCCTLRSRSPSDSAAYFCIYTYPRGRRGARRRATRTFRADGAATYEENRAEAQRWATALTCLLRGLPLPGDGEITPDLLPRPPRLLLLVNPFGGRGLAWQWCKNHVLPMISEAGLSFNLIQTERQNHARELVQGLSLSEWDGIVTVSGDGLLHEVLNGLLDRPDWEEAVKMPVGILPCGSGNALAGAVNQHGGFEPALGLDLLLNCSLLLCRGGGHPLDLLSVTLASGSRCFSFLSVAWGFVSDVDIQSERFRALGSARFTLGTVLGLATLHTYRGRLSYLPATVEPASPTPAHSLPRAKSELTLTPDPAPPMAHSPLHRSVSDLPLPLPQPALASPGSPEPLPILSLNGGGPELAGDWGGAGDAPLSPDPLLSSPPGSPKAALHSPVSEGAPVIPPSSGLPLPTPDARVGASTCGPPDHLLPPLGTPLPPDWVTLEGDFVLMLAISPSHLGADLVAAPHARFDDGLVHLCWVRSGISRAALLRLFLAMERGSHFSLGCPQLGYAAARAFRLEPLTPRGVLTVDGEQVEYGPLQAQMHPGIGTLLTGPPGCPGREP
Nature of the assay: Sphingosine kinase assay, recombinant human SPHK2 ([32P]S1P product, scintillation counting). The class given is biochemical. The following applies: read-out: activity hSPHK2 (range estimate of KI). How it is done:
(§1) Recombinant baculovirus encoding human sphingosine kinase type 1 (SPHK1) was used to infect Sf9 insect cells and after 2-5 days, cleared lysates were prepared and used without further purification. Human SPHK2, which was partially purified from baculovirus-infected Sf9 cell lysates, was purchased from a commercial source. Sphingosine kinase assays were performed using standard protocols. Product [^32P]S1P was recovered by binding to cation exchange paper and quantified by scintillation counting.

The target of assay [2] is T2, human sphingosine kinase type 1 (hSPHK1) (Homo sapiens, UniProt Q9NYA1).
T2 construct: made in house; host or cells: Sf9 insect cells (baculovirus)
T2 sequence (Q9NYA1 whole entry): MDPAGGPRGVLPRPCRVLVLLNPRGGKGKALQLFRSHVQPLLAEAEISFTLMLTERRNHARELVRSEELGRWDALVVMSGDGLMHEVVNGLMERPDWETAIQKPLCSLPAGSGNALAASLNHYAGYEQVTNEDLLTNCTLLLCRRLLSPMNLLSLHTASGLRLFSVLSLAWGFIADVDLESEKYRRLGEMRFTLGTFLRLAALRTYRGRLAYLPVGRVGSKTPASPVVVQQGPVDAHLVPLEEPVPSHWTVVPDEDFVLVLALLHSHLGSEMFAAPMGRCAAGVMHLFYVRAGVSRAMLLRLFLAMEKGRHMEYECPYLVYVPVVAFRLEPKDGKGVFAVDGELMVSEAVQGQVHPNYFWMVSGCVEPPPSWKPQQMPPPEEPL
The assay can be described thus: Sphingosine kinase assay, recombinant human SPHK1 ([32P]S1P product, scintillation counting). The following applies: read-out: activity hSPHK1 (range estimate of KI). The class given is biochemical. How it is done:
as §1

Structures can show the parent of a compound that is named as a salt. Some results are limits rather than exact numbers.

Here are results for 23 compounds from US10100022B2, “Sphingosine kinase inhibitors” (University of Virginia Patent Foundation, priority 2014, dated 2018).

For the compound `CCCc1ccc(CCc2ccc(-c3noc([C@@H]4CCCN4C(=N)N)n3)cc2C(F)(F)F)cc1` [Compound 35A, (S)-2-(3-(4-(4-propylphenethyl)-3-(trifluoromethyl)phenyl)-1,2,4-oxadiazol-5-yl)pyrrolidine-1-carboximidamide hydrochloride], the Ki in assay [1] is less than 1000 nM; in assay [2], greater than 10 µM.
For `CCCCc1ccc(CCc2ccc(-c3noc([C@@H]4CCCN4C(=N)N)n3)cc2C(F)(F)F)cc1` [Compound 36A, (S)-2-(3-(4-(4-butylphenethyl)-3-(trifluoromethyl)phenyl)-1,2,4-oxadiazol-5-yl)pyrrolidine-1-carboximidamide hydrochloride], in that order: less than 1000 nM and greater than 10 µM.
The matching figures for `CCCCc1ccc(CCc2ccc(-c3noc([C@@H]4[C@@H](O)CCN4C(=N)N)n3)cc2C(F)(F)F)cc1` [Compound 37A, (2S,3S)-2-(3-(4-(4-butylphenethyl)-3-(trifluoromethyl)phenyl)-1,2,4-oxadiazol-5-yl)-3-hydroxypyrrolidine-1-carboximidamide hydrochloride]: less than 1000 nM and 1 to 10 µM.
Turning to `N=C(N)N1CCC[C@H]1c1nc(-c2ccc(CCC3CC3)c(C(F)(F)F)c2)no1` [Compound 38A, (S)-2-(3-(4-(2-cyclopropylethyl)-3-(trifluoromethyl)phenyl)-1,2,4-oxadiazol-5-yl)pyrrolidine-1-carboximidamide hydrochloride], the Ki in assay [1] was 1000 to 10000 nM; in assay [2] it was greater than 10 µM.
Take `N=C(N)N1CCC[C@H]1c1nc(-c2ccc(CCc3ccc(C(F)(F)F)cc3)c(C(F)(F)F)c2)no1` [Compound 39A, (S)-2-(3-(3-(trifluoromethyl)-4-(4-(trifluoromethyl)phenethyl)phenyl)-1,2,4-oxadiazol-5-yl)pyrrolidine-1-carboximidamide hydrochloride]: the Ki in assay [1] was less than 1000 nM; in assay [2], greater than 10 µM.
The matching figures for `N=C(N)N1CC[C@H](O)[C@H]1c1nc(-c2ccc(CCc3ccc(C(F)(F)F)cc3)c(C(F)(F)F)c2)no1` [Compound 40A, (2S,3S)-3-hydroxy-2-(3-(3-(trifluoromethyl)-4-(4-(trifluoromethyl)phenethyl)phenyl)-1,2,4-oxadiazol-5-yl)pyrrolidine-1-carboximidamide hydrochloride]: less than 1000 nM and 1 to 10 µM.
The matching figures for `COc1ccc(CCc2ccc(-c3noc([C@@H]4[C@@H](O)CCN4C(=N)N)n3)cc2C(F)(F)F)cc1` [Compound 41A, (2S,3S)-3-hydroxy-2-(3-(4-(4-methoxyphenethyl)-3-(trifluoromethyl)phenyl)-1,2,4-oxadiazol-5-yl)pyrrolidine-1-carboximidamide hydrochloride]: less than 1000 nM and 1 to 10 µM.
On to `COc1ccc(CCc2ccc(-c3noc([C@@H]4CCCN4C(=N)N)n3)cc2C(F)(F)F)cc1` [Compound 42A, (S)-2-(3-(4-(4-methoxyphenethyl)-3-(trifluoromethyl)phenyl)-1,2,4-oxadiazol-5-yl)pyrrolidine-1-carboximidamide hydrochloride], for which the Ki is less than 1000 nM in assay [1] and greater than 10 µM in assay [2].
With `N=C(N)N1CC[C@H](O)[C@H]1c1nc(-c2ccc(CCC3CCCC3)c(C(F)(F)F)c2)no1` [Compound 43A, (2S,3S)-2-(3-(4-(2-cyclopentylethyl)-3-(trifluoromethyl)phenyl)-1,2,4-oxadiazol-5-yl)-3-hydroxypyrrolidine-1-carboximidamide hydrochloride], the Ki in assay [1] is less than 1000 nM; in assay [2], 1 to 10 µM.
For `N=C(N)N1CCC[C@H]1c1nc(-c2ccc(CCC3CCCC3)c(C(F)(F)F)c2)no1` [Compound 44A, (S)-2-(3-(4-(2-cyclopentylethyl)-3-(trifluoromethyl)phenyl)-1,2,4-oxadiazol-5-yl)pyrrolidine-1-carboximidamide hydrochloride], in that order: 1000 to 10000 nM and greater than 10 µM.
The matching figures for `N=C(N)N1CCC[C@H]1c1nc(-c2ccc(OCCCCO)c(C(F)(F)F)c2)no1` [Compound 45A, (S)-2-(3-(4-(4-hydroxybutoxy)-3-(trifluoromethyl)phenyl)-1,2,4-oxadiazol-5-yl)pyrrolidine-1-carboximidamide hydrochloride]: 1000 to 10000 nM and greater than 10 µM.
As for `COCCCCOc1ccc(-c2noc([C@@H]3CCCN3C(=N)N)n2)cc1C(F)(F)F` [Compound 46A, (S)-2-(3-(4-(4-methoxybutoxy)-3-(trifluoromethyl)phenyl)-1,2,4-oxadiazol-5-yl)pyrrolidine-1-carboximidamide 2,2,2-trifluoroacetate], the figures for the Ki in assay [1] and in assay [2] were greater than 10000 nM and greater than 10 µM, respectively.
In the case of `C=CCn1c(CCCOc2ccc(-c3noc([C@@H]4[C@@H](O)CCN4C(=N)N)n3)cc2C(F)(F)F)nc2ccccc21` [Compound 47A, ((2S,3S)-2-(3-(4-(3-(1-allyl-1H-benzo[d]imidazol-2-yl)propoxy)-3-(trifluoromethyl)phenyl)-1,2,4-oxadiazol-5-yl)-3-hydroxypyrrolidin-1-yl)(amino)methaniminium chloride], the Ki in assay [1] is 1000 to 10000 nM; in assay [2], greater than 10 µM.
The matching figures for `CCCCCCCCOc1ccc(-c2noc([C@@H]3C[C@H](F)CN3C(=N)N)n2)cc1C(F)(F)F` [Compound 48A, (2S,4S)-4-fluoro-2-(3-(4-(octyloxy)-3-(trifluoromethyl)phenyl)-1,2,4-oxadiazol-5-yl)pyrrolidine-1-carboximidamide 2,2,2-trifluoroacetate]: 1000 to 10000 nM and greater than 10 µM.
For `CCCCCCCCOc1ccc(-c2noc([C@@H]3C[C@@H](F)CN3C(=N)N)n2)cc1C(F)(F)F` [Compound 49A], in that order: less than 1000 nM and greater than 10 µM.
In the case of `CCc1ccc(CCc2ccc(-c3noc([C@@H]4CCCN4C(=N)N)n3)cc2C(F)(F)F)cc1` [Compound 50A, (S)-2-(3-(4-(4-ethylphenethyl)-3-(trifluoromethyl)phenyl)-1,2,4-oxadiazol-5-yl)pyrrolidine-1-carboximidamide hydrochloride], the figures for the Ki in assay [1] and in assay [2] were less than 1000 nM and greater than 10 µM, respectively.
Consider `N=C(N)N1CCC[C@H]1c1nc(-c2ccc3cc(O)ccc3c2)no1` [Compound 51A, (S)-amino(2-(3-(6-hydroxynaphthalen-2-yl)-1,2,4-oxadiazol-5-yl)pyrrolidin-1-yl)methaniminium chloride], for which the Ki is greater than 10000 nM in assay [1] and greater than 10 µM in assay [2].
For `N=C(N)N1CCC[C@H]1c1nc(-c2ccc3cc(OCc4ccc(Br)cc4)ccc3c2)no1` [Compound 53A, (S)-amino(2-(3-(6-((4-bromobenzyl)oxy)naphthalen-2-yl)-1,2,4-oxadiazol-5-yl)pyrrolidin-1-yl)methaniminium chloride], in that order: 1000 to 10000 nM and greater than 10 µM.
In the case of `N=C(N)N1CCC[C@H]1c1nc(-c2ccc3cc(OCCc4ccc(C(F)(F)F)cc4)ccc3c2)no1` [Compound 54A, (S)-amino(2-(3-(6-(4-(trifluoromethyl)phenethoxy)naphthalen-2-yl)-1,2,4-oxadiazol-5-yl)pyrrolidin-1-yl)methaniminium chloride], the results for the Ki in assay [1] and in assay [2] were greater than 10000 nM and greater than 10 µM, respectively.
For the compound `N=C(N)N1CCC[C@H]1c1nc(-c2ccc3cc(OCCc4ccccc4C(F)(F)F)ccc3c2)no1` [Compound 55A, (S)-amino(2-(3-(6-(2-(trifluoromethyl)phenethoxy)naphthalen-2-yl)-1,2,4-oxadiazol-5-yl)pyrrolidin-1-yl)methaniminium chloride], the figures for the Ki in assay [1] and in assay [2] were greater than 10000 nM and greater than 10 µM, respectively.
The matching figures for `COCCCOc1ccc2cc(-c3noc([C@@H]4CCCN4C(=N)N)n3)ccc2c1` [Compound 57A, (S)-amino(2-(3-(6-(3-methoxypropoxy)naphthalen-2-yl)-1,2,4-oxadiazol-5-yl)pyrrolidin-1-yl)methaniminium chloride]: greater than 10000 nM and greater than 10 µM.
For `N=C(N)N1CCC[C@H]1c1nc(-c2ccc3cc(OCc4cccc(Br)c4)ccc3c2)no1` [Compound 58A, (S)-amino(2-(3-(6-((3-bromobenzyl)oxy)naphthalen-2-yl)-1,2,4-oxadiazol-5-yl)pyrrolidin-1-yl)methaniminium chloride], in that order: greater than 10000 nM and greater than 10 µM.
The matching figures for `N=C(N)N1C[C@H](O)C[C@H]1c1nc(-c2ccc(OCCCc3ccc4c(c3)OCCO4)c(C(F)(F)F)c2)no1` [Compound 59A]: greater than 10000 nM and greater than 10 µM.

By Ki is commonly meant a measure of affinity in units of concentration, obtained from inhibition or displacement.
